Measured values published in patent publication US20220265614A1, “TREATMENT COMPRISING FXR AGONISTS” (Novartis AG, priority 2019, published 2022).

Tests used:
[1] = system: patients with biopsy-proven NASH and fibrosis stages 2-3; assay: FLIGHT-FXR (NCT02855164) Part C interim analysis at week 12; type: in vivo, human
Text: Prespecified endpoints assessed at week 12 included overall safety and changes in alanine aminotransferase (ALT), hepatic fat fraction (HFF), gamma glutamyl transferase (GGT), and body weight.

NASH patients [2] = assay: Parts A and B of study CLJN452A2202 in NASH patients, 12 weeks
human hepatocytes = assay: In vitro human hepatocytes treated with FXR agonists: LDL uptake; type: cell-based; details: FIG. 5
Text: In addition, FXR agonist treatments have been associated with lipid abnormalities, including increases in peripheral LDL (Neuschwander-Tetri et al, The Lancet 2015; 385: 956-965). The reduction of the bile acid pathway by FXR agonists could lead to intracytoplasmic increase in cholesterol in the hepatocytes. Increase cholesterol in hepatocytes is associated with a counter mechanism of decrease LDL receptor on the surface of the cells (Goldstein et al Circulation. 1987 September;76(3):504-7). Such a decrease in the LDL receptor on the surface of the hepatocytes will ultimately result in an increase in circulating LDL; the phenotype observed in the clinics. […] To mitigate the increase in circulating LDL, it is proposed to administer a FXR agonist to the subjects in need thereof in the evening (e.g. from about 6 pm to about 12 pm, preferably from about 8 pm to about 11 pm, preferably around 9 pm) to reduce the impact of the FXR agonist on circulating LDL.
To mitigate the increase in peripheric LDL, we hypothesize that treating the subjects in the evening (from about 6 pm to about 12 pm, e.g. from about 8 pm to about 11 pm, preferably around 9 pm) would be reduce the impact of the drug on LDL. […]

NASH patients [3] = details: cited from earlier work
[4] = higher doses (140 μg, 200 μg), after 12 weeks of treatment
[5] = all doses (10, 30, 60 and 90 μg), 12 weeks

## O=C(O)c1cc(F)c2nc(N3C4CCC3CC(OCc3c(-c5ccccc5OC(F)(F)F)noc3C3CC3)C4)sc2c1 [Tropifexor, 2-[(1R,3r,5S)-3-({5-cyclopropyl-3-[2-(trifluoromethoxy)phenyl]-1,2-oxazol-4-yl}methoxy)-8-azabicyclo[3.2.1]octan-8-yl]-4-fluoro-1,3-benzothiazole-6-carboxylic acid]
[1]; 140 μg and 200 μg, 12 weeks
  lipid changes that led to treatment discontinuation or dose reduction: None
  low density lipoprotein-cholesterol (LDL-C): dose-related increase
[1]; 140 μg once daily, N = 50
  LS mean absolute change (SE) in ALT from baseline to Week 12: −20.1 (4.57) U/L
  LS mean absolute change (SE) in GGT from baseline to Week 12: −39.2 (3.70) U/L
  LS mean absolute change (SE) in body weight from baseline to Week 12: −2.46 (0.38) kg
[1]; 140 μg, 200 μg and placebo groups
  frequency of serious adverse events: low and comparable across groups
[1]; 140 μg, n=1
  treatment discontinuation rate due to pruritus: 2%
[1]; 200 μg
  prespecified endpoints at week 12: met
[1]; 200 μg once daily, N = 51
  LS mean absolute change (SE) in ALT from baseline to Week 12: −23.6 (4.48) U/L
  LS mean absolute change (SE) in GGT from baseline to Week 12: −40.9 (3.62) U/L
  LS mean absolute change (SE) in body weight from baseline to Week 12: −3.20 (0.37) kg
[1]; 200 μg, n=3
  treatment discontinuation rate due to pruritus: 6%
[1]; both Tropifexor groups (140 μg, 200 μg)
  patients with pruritus whose events were of mild (Grade 1) severity: > 60%
[1]; [4]
  ALT, HFF, and body weight: robust and dose-dependent decreases
  safety and tolerability: good safety and tolerability
NASH patients [2]; 10 to 90 μg daily for 12 weeks
  biologic activity (GGT): clear dose response
  target engagement (FGF19): clear dose response
NASH patients [2]; 60 and 90 μg, Week 12
  efficacy based on biomarkers: anti-inflammatory and anti-steatotic efficacy
NASH patients [2]; [5]
  ALT compared to placebo: reduced
  hepatic fat fraction compared to placebo: reduced
NASH patients [2]; up to 90 μg daily
  tolerability: generally well tolerated

## O=C(O)c1ccnc(N2CC(O)(c3ccc(OCc4c(-c5c(Cl)cccc5Cl)noc4C4CC4)cc3Cl)C2)c1 [cilofexor]
Human hepatocytes
  LDL uptake by hepatocytes: reduce the LDL uptake by hepatocytes in a dose dependent manner

## CC[C@H]1[C@@H](O)[C@@H]2[C@H](CC[C@]3(C)[C@@H]([C@H](C)CCC(=O)O)CC[C@@H]23)[C@@]2(C)CC[C@@H](O)C[C@@H]12 [obeticholic acid, 6α-ethyl-chenodeoxycholic acid]
Human hepatocytes
  LDL uptake by hepatocytes: reduce the LDL uptake by hepatocytes in a dose dependent manner
NASH patients [3]
  adverse effects of long term administration: pruritus: most common adverse effect
NASH patients [3]; long term administration
  lipid abnormalities: low density lipoprotein (LDL) cholesterol: increased
